According to patent US20160206631A1, “OXYSTEROLS THAT ACTIVATE LIVER X RECEPTOR SIGNALING AND INHIBIT HEDGEHOG SIGNALING” (THE REGENTS OF THE UNIVERSITY OF CALIFORNIA, priority 2010, published 2016):

Legend:
[1] = test system: Hedgehog pathway; conditions: cited from earlier work
[2] = test system: human NCI-H929 multiple myeloma cell line; assay: Clonogenic growth of NCI-H929 multiple myeloma cells; format: cell-based; conditions: 1 μM, 96 hours, colonies after 10 days (FIG. 6)
Protocol: NCI-11929 multiple myeloma cells were treated for 96 hours with control vehicle or 1 μM of each compound as shown. Next, drugs were removed and cells were plated in methylcellulose. Clonogenic growth of colonies determined after 10 days. Data are reported as percentage of colony number normalized to control group.
In order to examine the effect of LXR activation on the clonogenic growth of multiple myeloma cells, the human NCI-H929 multiple myeloma cell line was used.

[3] = test system: C3H10T1/2 embryonic fibroblasts; assay: CAPAN-1 conditioned-medium-induced alkaline phosphatase activity in C3H10T1/2 cells; format: cell-based; conditions: C3H10T1/2, 3 days; TO 2 μM, Oxy16 5 μM, Cyc 4 μM (FIG. 11)
Protocol: Next, cells were treated with DMEM containing 5% FBS or CAPAN-1 CM in the presence or absence of TO, Oxy16, or Cyc. After 3 days, alkaline phosphatase activity assay using whole cell lysates was performed.
(§1) In order to assess the functional activity of Hh proteins produced by CAPAN-1 cells, we examined the ability of CM to induce Hh target gene expression in C3H10T1/2 embryonic fibroblasts.

[4] = test system: NCI-H929 multiple myeloma cancer stem cells; assay: Percentage of cancer stem cells (CD138 negative, ALDH positive) in NCI-H929 cultures by flow cytometry; format: cell-based, human; conditions: 1 μM, 96 hours (FIGS. 7, 8)
Protocol: NCI-H929 multiple myeloma cells were treated for 96 hours with control vehicle or 1 μM of each compound as shown. Next, percentage of CD138negative cells in the same number of starting cells from each group was determined by flow cytometry.
NCI-H929 multiple myeloma cells were treated for 96 hours with control vehicle or 1 μM of each compound as shown. Next, percentage of ALDH+ cells in the same number of starting cells from each group was determined by flow cytometry.

[5] = test system: U2OS human osteosarcoma cells; assay: Anchorage-independent clonogenic growth of U2OS cells; format: cell-based; conditions: 1 μM, 72 hours, colonies after 10 days (FIG. 4)
Protocol: (§2) Next, cells were harvested and examined for clonogenic growth in non-adherent plates after 10 days of culturing. Data from a representative of two separate experiments are reported as the relative number of colonies formed by cells treated with LXR ligands relative to cells treated with control vehicle (% of control).
(§3) We examined whether LXR activation inhibits the clonogenic growth of human osteosarcoma cells using an anchorage-independent cell growth assay. Saos-2 and U2OS cells were seeded in standard tissue culture plates and treated for 72 hours with control vehicle or 1 μM of TO, 22R, or Oxy16. Following treatments with LXR ligands, the drugs were removed and the cells harvested and plated in methylcellulose media in non-adherent plates (Costar) and the cell colonies formed after 10 days were counted.

[6] = test system: L3.6p1 human pancreatic cancer cells; assay: Clonogenic growth of L3.6p1 pancreatic cancer cells in methylcellulose; format: cell-based; conditions: 72 hours treatment, colonies counted after 10 days
Protocol: (§4) Following treatment cells were harvested by washing cells twice with phosphate buffered saline (PBS) followed by enzymatically detaching with trypsin/EDTA. Cells were collected then washed twice with PBS. Cells were counted then resuspended in 500 uL of media. The volume of cells required for 2,000 cells from the control group was removed from each group then mixed with methylcellulose (1.2%) containing 30% fetal bovine serum, 1% bovine serum albumin, 10^-4 M 2-mercaptoethanol, and 2 mM L-glutamine. Cells were plated in low-attachment 6 well plates (1 ml/well), each group being plated in triplicate. Following 10 days of incubation, tumor cell colonies consisting of >40 cells were counted using an inverted microscope. Results are presented as the percentage of colonies from each treatment group compared to the control group (Table 2).

[7] = test system: human primary multiple myeloma cells derived from patients; assay: Clonogenic growth of primary multiple myeloma cells from patients in methylcellulose; format: cell-based; conditions: 1 μM, 96 hours, CD34+ and CD138+ depleted bone marrow mononuclear cells
[8] = test system: LXR; assay: ABCA1 (LXR target gene) expression by Q-RT-PCR in M2-10B4 bone marrow stromal cells
Protocol: This was measured by the ability of these molecules to induce the expression of LXR-target genes, including ABCA1, in M2-10B4 bone marrow stromal cells (MSC) after 48 hours of treatment (Table 1).

[9] = test system: Hedgehog signaling; assay: CAPAN-1 conditioned-medium-induced Hh target gene expression (Ptch1, HHIP, Gli1) in C3H10T1/2 cells; format: cell-based; conditions: C3H10T1/2, 48 hours; TO 2 μM, Oxy16 5 μM, Cyc 4 μM (FIG. 10)
Protocol: Next, cells were treated with DMEM containing 5% […] or CAPAN-1 CM in the presence or absence of TO, Oxy16, or Cyc. After 48 hours, RNA was extracted and analyzed by Q-RT-PCR for the expression of Hh target genes Ptch1, HHIP, and Gli1 and normalized to GAPDH expression.
As noted above, Hh signaling appears to play an important role in the initiation and progression of pancreatic cancer (26), and the inhibition of HE signaling using small molecule antagonists inhibits pancreatic cancer cells from growing in vitro and in vivo (50). […] Subsequently, Hh signaling in stromal cells provides a permissive milieu for tumor cells to grow. […] In this Example, we examine this possibility using an in vitro model system in which Hh signaling is induced in C3H10T1/2 embryonic fibroblasts by conditioned-medium (CM) from CAPAN-1 human pancreatic cancer cells.
as §1

[10] = test system: LXR; assay: LXR target gene expression by Q-RT-PCR in Saos-2 osteosarcoma cells; format: cell-based, human; conditions: for expression of LXR target genes ABCA1 and SREBP1c: Saos-2 cells (FIG. 2, 72 hours for TO)
From the text: Data from a representative experiment are reported as the Data from a representative experiment are reported as the mean of triplicate determinations±SD relative to the expression level of LXRα (p<0.001 for control vs. both concentrations of TO for ABCA1 and SREBP1c mRNA).
Culturing the cells in varying serum (FBS) concentrations from 1% to 10% had no effect on LXRs or LXR target gene expression levels at baseline.

[11] = test system: REH human ALL cells; assay: Clonogenic growth of REH ALL cells; format: cell-based
Protocol: as §4
A similar experiment to that shown above for pancreatic cancer cells was performed using the human ALL cells, REH (Table 3).

[12] = test system: Saos-2 human osteosarcoma cells; assay: Anchorage-independent clonogenic growth of Saos-2 cells; format: cell-based; conditions: for clonogenic growth: Saos-2, 1 μM, 72 hours, colonies after 10 days (FIG. 4)
Protocol: as §2, §3

[13] = test system: LXR; assay: LXR target gene expression in C3H10T1/2 cells; conditions: C3H10T1/2, 48 hours
From the text: Next we examined whether LXR activation by LXR agonists inhibits CAPAN-1 CM-induced Hh target gene expression in fibroblastic cells.
As noted above, specific oxysterols are thought to be physiological ligands of LXRs that are classified as partial agonists based on their differential effects on the interaction of LXRs with co-activators and co-repressors compared to those induced by the full LXR agonist TO.

[14] = test system: Hedgehog signaling pathway; assay: Ptch1 mRNA expression (Hh target gene) by Q-RT-PCR in Saos-2 cells; format: cell-based, human; conditions: Saos-2, 2% FBS, 72 hours; 2 or 4 τM TO, 4 μM cyclopamine (FIG. 5)
Protocol: Saos-2 cells were cultured in medium containing 2% FBS and were treated at confluence with 4 μM Cyc, 2 or 4 τM TO, alone or in combination for 72 hours. Expression of Ptch1 and Gli1 (data not shown) mRNA was measured by Q-RT-PCR and normalized to GAPDH.

[15] = test system: human pancreatic cancer cells; assay: Clonogenic growth of human pancreatic cancer cells in vitro; format: cell-based
[16] = test system: LXR; assay: LXR target gene expression in human pancreatic cancer cells
[17] = test system: CAPAN-1 human pancreatic cancer cells; assay: Ihh and Shh mRNA expression in CAPAN-1 cells; format: cell-based; conditions: cyclopamine 4 μM, TO 2-5 μM, data not shown
Protocol: Expression of Shh and Ihh mRNA in human cultures of pancreatic cancer cells, CAPAN-1, L3.6p1, and E3LZ10.7 were analyzed by Q-RT-PCR and normalized to GAPDH expression. Cells were cultured in DMEM containing 10% FBS and RNA was extracted 3 days after seeding. Data from a representative experiment are reported as the mean of triplicate determinations±SD (p<0.001 for CAPAN-1 vs. other two cell types for Shh and 11 h mRNA expression).
Culturing CAPAN-1 cells in 1% vs. 10% FBS had no effects on their level of mRNA expression for 11th and Shh (data not shown), and treatment of CAPAN-1 cells with the Hh pathway inhibitor cyclopamine (4 μM) or the LXR agonist TO (2-5 μM) had no effect on the expression of Ihh or Shh mRNA in these cells (data not shown).

Row | SMILES | net effect of the LXR agonist on the Hedgehog pathway [1] | clonogenic growth [2] | CAPAN-1 CM-induced ALP activity [3] | percentage of cancer stem cells (CD138 negative and ALDH positive cells) [4] | clonogenic growth [5] | Normalized Colony # (% of control) ([6]; 5 μM) | Raw Colony # ([6]; 5 μM) | Normalized Colony # (% of control) ([6]; 10 μM) | Raw Colony # ([6]; 10 μM) | colony formation (% of control) ([7]; Specimen # 1) | colony formation (% of control) ([7]; Specimen # 2) | CAPAN-1 CM-induced expression of Hh target genes Ptch1, Gli1, HHIP [9] | expression of LXR target genes ABCA1 and SREBP1c [10] | Normalized Colony # (% of control) ([11]; 0.1 μM) | Raw Colony # ([11]; 0.1 μM) | Normalized Colony # (% of control) ([11]; 0.5 μM) | Raw Colony # ([11]; 0.5 μM) | clonogenic growth [12] | other results
1 | C[C@H](CCCC(C)(C)O)[C@H]1CC[C@H]2[C@@H]3CC=C4C[C@@H](O)CC[C@]4(C)[C@H]3CC[C@]12C [25-hydroxycholesterol] | leave the Hedgehog pathway active | – | – | – | – | – | – | – | – | – | – | – | – | – | – | – | – | – | –
2 | CC(C)CC[C@@H](O)[C@](C)(O)[C@H]1CC[C@H]2[C@@H]3CC=C4C[C@@H](O)CC[C@]4(C)[C@H]3CC[C@]12C [Oxy16, (2R,3R)-2-((3S,8S,9S,10R,13S,14S,17S)-3-Hydroxy-10,13-dimethyl-2,3,4,7,8,9,10,11, 12,13,14,15,16,17-tetradecahydro-1H-cyclopenta[a]phenanthren-17-yl)-6-methyl-heptane-2,3-diol] | – | inhibited clonogenic growth | inhibited | significantly reduced | significant inhibition | 22 % of control | 53 | 10 % of control | 24 | 13 % of control | 20 % of control | inhibited | significant expression | 71 % of control | 65 | 15 % of control | 14 | significant inhibition | fold induction at 2 µM ([8]; M210B4, 48 h, read-out: ABCA1 gene expression, Fold Induction ± SD): 2.1 ± 0.5; LXR signaling activation ([8]; bone marrow stromal cells): Activate LXR Signaling; induction of LXR target genes ABCA1 and ABCG1 ([10]; osteosarcoma cells, preliminary studies (FIG. 3)): strong induction; potency in blocking clonogenic growth of osteosarcoma cells versus naturally occurring counterparts ([12]; osteosarcoma cells, compared with 22R and 20S): more potent than its naturally occurring counterparts; induction of ABCA1 and ABCG1 [13]: induction
3 | C=C(C)CCC[C@](C)(O)C1CCC2C3CC=C4C[C@@H](O)CC[C@]4(C)C3CC[C@@]21C (stereo partly drawn) [Oxy 13] | leave the Hedgehog pathway active | – | – | – | – | – | – | – | – | – | – | – | – | – | – | – | – | – | –
4 | O=S(=O)(c1ccccc1)N(CC(F)(F)F)c1ccc(C(O)(C(F)(F)F)C(F)(F)F)cc1 [TO, TO901317, reference compound] | – | inhibited clonogenic growth | significantly inhibited | significantly reduced | significant inhibition | 41 % of control | 100 | 15 % of control | 37 | 27 % of control | 18 % of control | significantly inhibited | robust expression | 48 % of control | 44 | 37 % of control | 34 | significant inhibition | Ptch1 mRNA expression [14]: significant inhibition; clonogenic growth [15]: significantly inhibit; expression of LXR target genes [16]: induce the expression of LXR target genes; expression of Ihh or Shh mRNA [17]: no effect
